# Values quoted from earlier work as cited in patent publication US20020048551A1, “Delivery of biologically active material in a liposomal formulation for administration into the mouth” (priority 1999, published 2002).
# Conditions: tablet absorbed through the buccal mucosa
smiles,measurement,value
C[C@]12CCC(=O)C=C1CC[C@@H]1[C@@H]2CC[C@@]2(C)[C@H]1CC[C@]2(C)O [methyltestosterone],androgenic activity relative to oral tablets,twice
